Reference: PubChem BioAssay (NCI)
Several values for one entry are separate records, joined by “and”; a condition that tells them apart may be missing. Equal values may be shown once.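 Where inhibition never reached the appropriate level, the endpoint shown equals the highest concentration tested. Otherwise, values were interpolated linearly from a five-concentration, 48-hour dose response in 96-well plates. Abbreviation: GI50, concentration required for 50% inhibition of growth. TGI denotes the concentration required for complete inhibition of growth.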

How the values were obtained:
Experiment in all cases: NCI tumour cell line growth inhibition, 48 h
HOP-62 NSCLC = system: HOP-62 NSCLC
OVCAR-4 ovarian = system: OVCAR-4 ovarian
SK-MEL-2 melanoma = system: SK-MEL-2 melanoma
MDA-MB-231 breast = system: MDA-MB-231 breast
NCI-H23 lung = system: NCI-H23 lung
RXF 393 renal = system: RXF 393 renal
NCI-H460 lung = system: NCI-H460 lung
MCF7 breast = system: MCF7 breast
OVCAR-3 ovarian = system: OVCAR-3 ovarian
SF-268 CNS = system: SF-268 CNS

SMILES	TGI (HOP-62 NSCLC)	TGI (OVCAR-4 ovarian)	TGI (SK-MEL-2 melanoma)	TGI (MDA-MB-231 breast)	TGI (NCI-H23 lung)	TGI (RXF 393 renal)	TGI (NCI-H460 lung)	TGI (MCF7 breast)	TGI (OVCAR-3 ovarian)	TGI (SF-268 CNS) [µM]	GI50 (HOP-62 NSCLC) [µM]	GI50 (OVCAR-4 ovarian) [µM]	GI50 (SK-MEL-2 melanoma) [µM]	GI50 (MDA-MB-231 breast) [µM]	GI50 (NCI-H23 lung) [µM]	GI50 (RXF 393 renal) [µM]	GI50 (NCI-H460 lung) [µM]	GI50 (MCF7 breast) [µM]	GI50 (OVCAR-3 ovarian) [µM]	GI50 (SF-268 CNS) [µM]
OCCCN=C1CCCCC1	> 100 µM	> 100 µM	> 100 µM	> 100 µM	> 100 µM	> 100 µM	> 100 µM	> 100 µM	> 100 µM	> 100										
COc1cc2ncn(-c3cc(OCc4ccccc4C(F)(F)F)c(C(N)=O)s3)c2cc1OC	5.88 µM	> 25 µM	12.3 µM	> 25 µM	> 22.2 µM	4.02 µM	> 25 µM	> 25 µM	0.794 µM	> 25	0.197	> 23.5	0.207	0.27	0.16	0.102	0.101	0.0282	0.0838	0.225
O=[N+]([O-])c1cccc(/C=N/Nc2ccc3ccccc3n2)c1O	8.9 µM	> 39.6 µM	34.8 µM	25.6 µM	12.1 µM	17.4 µM	7.21 µM	11.4 µM	0.632 µM	15.3										
S=c1ssnc1-c1cc2ccccc2o1	37.6 µM	> 100 µM	28.3 µM	29.4 µM	75.5 µM	23.3 µM	29.5 µM	32.1 µM	49.2 µM	35	17.3	21.6	13.8	13.3	24.4	7.78	11	9.55	15.6	13.9
Clc1ccc2c(NCCNc3nc(N4CCOCC4)nc4ccccc34)ccnc2c1	5.98 µM	6.17 µM	3.72 µM	3.63 µM	17.8 µM	3.63 µM	4.16 µM	17.2 µM	3.53 µM	13	2.25	2.46	1.95	1.56	4.08	1.61	2.03	3.82	1.84	3.53
Cn1c(=O)c(-c2ccccc2Cl)cc2cnc(NC3CCOCC3)nc21	> 25 µM	> 25 µM	14.7 µM	> 25 µM	> 25 µM	> 23.9 µM	> 25 µM	> 25 µM	> 25 µM	> 25	> 25	10.4	6.1	7.69	18.3	5.19	11.1	> 25	> 22.7	14.6
COc1cc2c(c(OC)c1OC)-c1cc(I)c(O)cc1[C@@H](NC(C)=O)CC2	> 100 µM	> 100 µM	> 100 µM		> 100 µM	> 100 µM	4.99 µM	> 100 µM	0.0623 µM	41.1	0.179	0.105	23.1	0.0859	0.046	0.0496	0.0356	0.0336	0.0258	0.0666
CC1(C)CC(O)CC(C)(C)N1O	> 100 µM	> 100 µM	> 100 µM	> 100 µM	> 100 µM	> 100 µM	> 100 µM	> 100 µM	> 100 µM	> 100		> 100			> 100					
COC(=O)[C@@]12OC[C@]34[C@H]([C@@H](O)[C@@H]1O)[C@@]1(C)CC(=O)C(O)=C(C)[C@@H]1C[C@H]3OC(=O)[C@H](OC(=O)/C=C(\C)C(C)C)[C@@H]24	0.0342 µM and < 0.011 µM and 0.0216 µM	0.017 µM and 0.0225 µM	0.0195 µM and 0.0303 µM	0.0822 µM and 0.0757 µM	0.015 µM and 0.0688 µM	0.0303 µM and 0.0297 µM	0.00567 µM and 0.0435 µM	0.021 µM and 0.0264 µM	0.0151 µM and 0.0911 µM			0.00334	0.00517	0.0228						
CCn1cc(C(=O)O)c(=O)c2cc(F)c(N3CCN(S(=O)(=O)c4ccc(Cl)cc4Cl)CC3)cc21	9.95 µM	> 100 µM	5.8 µM	4.7 µM	5.97 µM	5.68 µM	15.9 µM	15.2 µM	5.79 µM	> 100	3.08	2.58	2.75	1.88	2.33	2.08	3.13	2.95	2.54	3.86
COc1cc(-c2nc(-c3ccccc3)c(-c3ccccc3)[nH]2)cc(OC)c1O	47.8 µM	56.8 µM	35.5 µM	34.2 µM	38.7 µM	31.2 µM	36.3 µM	43.4 µM	34.2 µM	44.1	21.9	17.6	19.8	16.7	19	14.7	17.3	13.2	18.3	20.1
O=c1c(I)c[nH]cc1I	> 100 µM	> 100 µM	> 100 µM	> 100 µM	> 100 µM	> 100 µM	> 100 µM	> 100 µM	> 100 µM	> 100	> 100	> 100	> 100	> 100	> 100	> 100	> 100	> 100	> 100	> 100
COc1ccc2nc3ccccc3c(NCCNCCO)c2c1	3.99 µM	3.26 µM	2.8 µM	3.72 µM	3.53 µM	2.34 µM	1.92 µM	7.33 µM	2.77 µM	2.95	0.604	0.836	0.448	0.932	0.762	0.763	0.341	0.363	0.624	0.46
O=c1ccc(N=Nc2ccccc2)ccc1O	24.4 µM	69.1 µM	47.5 µM	36.9 µM	31.5 µM	> 100 µM	97.8 µM	> 100 µM	22 µM	> 100										
